{"source": "patent US20250360143A1", "about": "“COMPOSITIONS AND METHODS FOR PHA[…] OF STROKE AND […] REPERFUSION INJURY” (priority 2022, published 2025)", "experiment_in_all_cases": "cell-based", "key": {"[1]": {"molecular_target": "T1, hP2X2/3R (Homo sapiens, UniProt P56373+Q9UBL9)", "T1 construct": "expressed in transfected cells; host or cells: CHO-K1", "T1 sequence (Q9UBL9 1-471)": "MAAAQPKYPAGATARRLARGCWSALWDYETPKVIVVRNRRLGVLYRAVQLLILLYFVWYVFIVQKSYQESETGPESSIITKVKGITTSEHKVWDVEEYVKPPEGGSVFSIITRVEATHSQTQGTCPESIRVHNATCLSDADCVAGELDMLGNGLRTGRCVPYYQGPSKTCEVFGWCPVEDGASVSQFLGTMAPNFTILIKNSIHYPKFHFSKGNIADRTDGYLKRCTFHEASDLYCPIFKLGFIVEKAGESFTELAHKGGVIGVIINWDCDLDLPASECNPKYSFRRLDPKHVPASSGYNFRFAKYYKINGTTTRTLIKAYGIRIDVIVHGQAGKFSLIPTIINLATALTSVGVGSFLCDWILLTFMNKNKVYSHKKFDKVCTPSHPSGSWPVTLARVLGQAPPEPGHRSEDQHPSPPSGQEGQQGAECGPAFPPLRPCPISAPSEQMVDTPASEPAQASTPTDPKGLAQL", "T1 sequence (P56373 1-397)": "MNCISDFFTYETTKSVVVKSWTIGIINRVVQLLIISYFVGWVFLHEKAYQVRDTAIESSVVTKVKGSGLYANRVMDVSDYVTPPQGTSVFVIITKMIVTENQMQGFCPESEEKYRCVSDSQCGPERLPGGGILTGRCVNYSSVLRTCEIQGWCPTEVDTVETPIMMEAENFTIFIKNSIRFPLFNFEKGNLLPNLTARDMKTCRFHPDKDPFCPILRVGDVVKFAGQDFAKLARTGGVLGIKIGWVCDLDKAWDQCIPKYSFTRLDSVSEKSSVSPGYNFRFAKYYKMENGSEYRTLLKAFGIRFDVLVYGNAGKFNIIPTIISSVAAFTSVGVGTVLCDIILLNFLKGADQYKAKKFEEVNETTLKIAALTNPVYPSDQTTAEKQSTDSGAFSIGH", "format": "cell-based", "conditions": "for inhibition at 30 µM: CHO-K1, read-out: hP2X2/3R % inhib."}, "[2]": {"molecular_target": "T2, hP2X1R (Homo sapiens, UniProt P51575)", "T2 construct": "expressed in transfected cells; host or cells: CHO-K1", "T2 sequence (P51575 1-399)": "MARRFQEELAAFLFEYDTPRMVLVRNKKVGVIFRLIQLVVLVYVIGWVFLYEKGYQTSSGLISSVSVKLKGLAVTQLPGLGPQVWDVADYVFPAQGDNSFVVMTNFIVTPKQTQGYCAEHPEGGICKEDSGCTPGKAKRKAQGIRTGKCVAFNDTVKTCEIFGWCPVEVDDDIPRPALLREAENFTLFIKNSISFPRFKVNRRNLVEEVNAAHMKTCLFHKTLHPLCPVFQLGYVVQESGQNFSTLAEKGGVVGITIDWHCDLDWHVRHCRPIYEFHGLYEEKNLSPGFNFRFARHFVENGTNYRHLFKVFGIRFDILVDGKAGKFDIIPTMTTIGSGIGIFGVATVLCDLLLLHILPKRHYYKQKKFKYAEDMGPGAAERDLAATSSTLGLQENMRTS", "conditions": "for inhibition at 30 µM: CHO-K1, percent inhibition at 30 μM, agonist α,β-MeATP 1.0 μM, read-out: hP2X1R % inhib."}, "[3]": {"molecular_target": "T3, hP2X3R (Homo sapiens, UniProt P56373)", "T3 construct": "expressed in transfected cells; host or cells: CHO-K1", "T3 sequence (P56373 1-397)": "T1 sequence (P56373 1-397)", "format": "cell-based", "conditions": "for inhibition at 30 µM: CHO-K1, read-out: hP2X3R % inhib."}, "[4]": {"molecular_target": "T4, hP2X4R (Homo sapiens, UniProt Q99571)", "T4 construct": "expressed in transfected cells; host or cells: HEK-293", "T4 sequence (Q99571 1-388)": "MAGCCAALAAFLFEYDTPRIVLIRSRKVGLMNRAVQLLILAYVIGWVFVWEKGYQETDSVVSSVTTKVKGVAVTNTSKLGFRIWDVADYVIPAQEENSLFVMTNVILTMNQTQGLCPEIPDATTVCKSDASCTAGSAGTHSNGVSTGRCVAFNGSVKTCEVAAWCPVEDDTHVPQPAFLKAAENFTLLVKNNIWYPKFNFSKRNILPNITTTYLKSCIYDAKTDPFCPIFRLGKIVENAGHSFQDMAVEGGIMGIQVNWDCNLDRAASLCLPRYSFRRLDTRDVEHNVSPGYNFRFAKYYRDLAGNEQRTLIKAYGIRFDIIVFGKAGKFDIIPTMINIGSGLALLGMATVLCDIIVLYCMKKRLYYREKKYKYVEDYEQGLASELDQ", "format": "cell-based", "conditions": "for inhibition at 30 µM: HEK293, read-out: hP2X4R % inhib."}, "[5]": {"conditions": "percent inhibition at 30 μM, agonist α,β-MeATP 5.0 μM"}, "[6]": {"conditions": "percent inhibition at 30 μM, agonist α,β-MeATP 1.0 μM"}}, "note": "pIC50: −log10 of the molar value. Like-named read-outs stand apart in the source and are kept apart here.", "data": [{"compound": "2′,3′-O-Trinitrophenyl-adenosine-5′-triphosphate [TNP-ATP, reference compound]", "values": [{"measurement": "pIC50", "setting": "[1]", "result": 7.19}, {"measurement": "pIC50", "setting": "[2]", "result": 6.92}, {"measurement": "pIC50", "setting": "[3]", "result": 7.74}]}, {"compound": "CCN(CC)CC.Cc1ccc2c(Br)cc3c(c2c1)NC(=O)CC(=O)N3c1cccc(-c2noc(=S)[nH]2)c1", "note": "[Compound 21e, 7-Bromo-10-methyl-5-(3-(5-thioxo-4,5-dihydro-1,2,4-oxadiazol-3-yl)phenyl)-1,5-dihydro-2H-naphtho[1,2-b][1,4]diazepine-2,4(3H)-dione triethylamine salt]", "values": [{"measurement": "pIC50", "setting": "[4]", "result": 4.93}, {"measurement": "hP2X4R inhibitory activity relative to 22a, in words", "setting": "[4]", "result": "only moderately reduced activity"}, {"measurement": "hP2X2/3R % inhib.", "setting": "[1]", "result": "−5", "unit": "%"}, {"measurement": "hP2X1R % inhib.", "setting": "[2]", "result": "−2", "unit": "%"}, {"measurement": "hP2X3R % inhib.", "setting": "[3]", "result": 17, "unit": "%"}]}, {"compound": "CCN(CC)CC.[N-]=[N+]=NCc1ccc2ccc3c(c2c1)NC(=O)CC(=O)N3c1cccc(-c2noc(=S)[nH]2)c1", "note": "[Compound 21g, 10-(azidomethyl)-5-(3-(5-thioxo-4,5-dihydro-1,2,4-oxadiazol-3-yl)phenyl)-1,5-dihydro-2H-naphtho[1,2-b][1,4]diazepine-2,4(3H)-dione triethylamine salt]", "values": [{"measurement": "hP2X4R % inhib.", "setting": "[4]", "result": 6, "unit": "%"}, {"measurement": "hP2X2/3R % inhib.", "setting": "[1]", "result": 4, "unit": "%"}, {"measurement": "hP2X1R % inhib.", "setting": "[2]", "result": 8, "unit": "%"}, {"measurement": "hP2X3R % inhib.", "setting": "[3]", "result": 13, "unit": "%"}]}, {"compound": "CCN(CC)CC.[N-]=[N+]=NCc1ccc2c(Br)cc3c(c2c1)NC(=O)CC(=O)N3c1cccc(-c2noc(=S)[nH]2)c1", "note": "[Compound 21h, 10-(azidomethyl)-7-bromo-5-(3-(5-thioxo-4,5-dihydro-1,2,4-oxadiazol-3-yl)phenyl)-1,5-dihydro-2H-naphtho[1,2-b][1,4]diazepine-2,4(3H)-dione triethylamine salt]", "values": [{"measurement": "hP2X4R % inhib.", "setting": "[4]", "result": 8, "unit": "%"}, {"measurement": "hP2X4R inhibitory activity relative to 22a, in words", "setting": "[4]", "result": "inactive"}, {"measurement": "hP2X2/3R % inhib.", "setting": "[1]", "result": "−4", "unit": "%"}, {"measurement": "hP2X1R % inhib.", "setting": "[2]", "result": "−13", "unit": "%"}, {"measurement": "hP2X3R % inhib.", "setting": "[3]", "result": 15, "unit": "%"}]}, {"compound": "CC(=O)NCc1ccc2ccc3c(c2c1)NC(=O)CC(=O)N3c1cccc(-c2noc(=S)[nH]2)c1.CCN(CC)CC", "note": "[Compound 21i, N-((2,4-Dioxo-5-(3-(5-thioxo-4,5-dihydro-1,2,4-oxadiazol-3-yl)phenyl)-2,3,4,5-tetrahydro-1H-naphtho[1,2-b][1,4]diazepin-10-yl)methyl) acetamide triethylamine salt]", "values": [{"measurement": "hP2X4R inhibitory activity relative to 22a, in words", "setting": "[4]", "result": "inactive"}, {"measurement": "hP2X4R % inhib.", "setting": "[4]; percent inhibition at 30 μM, agonist CTP 10 μM", "result": 16, "unit": "%"}, {"measurement": "hP2X2/3R % inhib.", "setting": "[1]; [5]", "result": "−5", "unit": "%"}, {"measurement": "hP2X3R % inhib.", "setting": "[3]; [6]", "result": 9, "unit": "%"}]}, {"compound": "CCN(CC)CC.[N-]=[N+]=NCc1ccc2c3c(ccc2c1)N(c1cccc(-c2noc(=S)[nH]2)c1)C(=O)CC(=O)N3", "note": "[Compound 21j, 9-(Azidomethyl)-5-(3-(5-thioxo-4,5-dihydro-1,2,4-oxadiazol-3-yl)phenyl)-1,5-dihydro-2H-naphtho[1,2-b][1,4]diazepine-2,4(3H)-dione triethylamine salt]", "values": [{"measurement": "pIC50", "setting": "[4]", "result": 4.67}, {"measurement": "hP2X4R inhibitory activity relative to 22a, in words", "setting": "[4]", "result": "destabilizing"}, {"measurement": "hP2X2/3R % inhib.", "setting": "[1]", "result": 2, "unit": "%"}, {"measurement": "hP2X1R % inhib.", "setting": "[2]", "result": "−5", "unit": "%"}, {"measurement": "hP2X3R % inhib.", "setting": "[3]", "result": 0, "unit": "%"}]}, {"compound": "O=C1CC(=O)N(c2cccc(-c3noc(=S)[nH]3)c2)c2cc(C#Cc3ccccc3)c3ccccc3c2N1", "note": "[Compound 21m, 7-(Phenylethynyl)-5-(3-(5-thioxo-4,5-dihydro-1,2,4-oxadiazol-3-yl)phenyl)-1,5-dihydro-2H-naphtho[1,2-b][1,4]diazepine-2,4(3H)-dione]", "values": [{"measurement": "inhibition at 30 µM", "setting": "[4]", "result": -4, "unit": "%"}, {"measurement": "inhibition at 30 µM", "setting": "[1]; [5]", "result": 5, "unit": "%"}, {"measurement": "inhibition at 30 µM", "setting": "[2]", "result": 14, "unit": "%"}, {"measurement": "inhibition at 30 µM", "setting": "[3]; [6]", "result": 7, "unit": "%"}]}, {"compound": "O=C1CC(=O)N(c2cccc(-c3noc(=S)[nH]3)c2)c2cc(C#Cc3cccnc3)c3ccccc3c2N1", "note": "[Compound 21n, 7-(Pyridin-3-ylethynyl)-5-(3-(5-thioxo-4,5-dihydro-1,2,4-oxadiazol-3-yl)phenyl)-1,5-dihydro-2H-naphtho[1,2-b][1,4]diazepine-2,4(3H)-dione]", "values": [{"measurement": "inhibition at 30 µM", "setting": "[4]", "result": 34, "unit": "%"}, {"measurement": "inhibition at 30 µM", "setting": "[1]; [5]", "result": 13, "unit": "%"}, {"measurement": "inhibition at 30 µM", "setting": "[2]", "result": 9, "unit": "%"}, {"measurement": "inhibition at 30 µM", "setting": "[3]; [6]", "result": 9, "unit": "%"}]}]}
